From ChEMBL document CHEMBL1201862, “PubChem BioAssay data set” (2004)
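A five-concentration, 48-hour dose response in 96-well plates underlies each endpoint, interpolated linearly between surrounding concentrations. Abbreviation: GI50, concentration required for 50% inhibition of growth.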 Active and inactive are the calls of the source. No stated cut-off is given here; in the data, active = GI50 up to about 1.1 µM and inactive = higher.

Legend:
Assay in all cases: DTP human tumour cell line panel, 48 h
Malme-3M = tested on: Malme-3M
BT-549 = tested on: BT-549
OVCAR-5 = tested on: OVCAR-5
NCI-H522 = tested on: NCI-H522
A498 = tested on: A498
RXF 393 = tested on: RXF 393
IGROV-1 = tested on: IGROV-1
HT-29 = tested on: HT-29
RPMI-8226 = tested on: RPMI-8226
UACC-62 = tested on: UACC-62
SK-MEL-5 = tested on: SK-MEL-5
SF-268 = tested on: SF-268
Hs-578T = tested on: Hs-578T
MDA-N = tested on: MDA-N
SK-MEL-28 = tested on: SK-MEL-28
CCRF-CEM = tested on: CCRF-CEM
SF-295 = tested on: SF-295
SW-620 = tested on: SW-620
LOX IMVI = tested on: LOX IMVI

| Structure (SMILES) | GI50 (Malme-3M) | GI50 (BT-549) | GI50 (OVCAR-5) | GI50 (NCI-H522) | GI50 (A498) | GI50 (RXF 393) | GI50 (IGROV-1) | GI50 (HT-29) | GI50 (RPMI-8226) | GI50 (UACC-62) | GI50 (SK-MEL-5) | GI50 (SF-268) | GI50 (Hs-578T) | GI50 (MDA-N) | GI50 (SK-MEL-28) | GI50 (CCRF-CEM) | GI50 (SF-295) | GI50 (SW-620) | GI50 (LOX IMVI) |
| --- | --- | --- | --- | --- | --- | --- | --- | --- | --- | --- | --- | --- | --- | --- | --- | --- | --- | --- | --- |
| CCOC(=O)c1cnccc1CC1(C#N)c2ccccc2C=CN1C(=O)c1ccccc1 (stereo unspecified) | 6.17 µM (inactive) | 51.6 µM (inactive) | 80.2 µM (inactive) | 18.6 µM (inactive) | 96.4 µM (inactive) | 64.9 µM (inactive) | 17.3 µM (inactive) | 12.3 µM (inactive) | 4.91 µM (inactive) | 23.9 µM (inactive) | 15.3 µM (inactive) | 23.6 µM (inactive) | 13 µM (inactive) | 18.1 µM (inactive) | 58.2 µM (inactive) | 40.3 µM (inactive) | 53.6 µM (inactive) | 47.3 µM (inactive) | 24.1 µM (inactive) |
| Nc1ccc(-c2nc3cc(F)ccc3s2)cc1CO | > 72.3 µM (inactive) | 21.2 µM (inactive) | 60.8 µM (inactive) | 41.7 µM (inactive) | 0.0102 µM (active) | 15.5 µM (inactive) | < 0.01 µM (active) | > 100 µM (inactive) | > 100 µM (inactive) | 19.4 µM (inactive) | > 96.8 µM (inactive) | 23.8 µM (inactive) | 34.4 µM (inactive) | > 100 µM (inactive) | > 100 µM (inactive) | 89.5 µM (inactive) | 14.4 µM (inactive) | > 100 µM (inactive) | 62.7 µM (inactive) |
| Cc1c(-c2ccccc2)c(C#N)c2nnn(-c3ccc(Cl)cc3)c(=O)n12 | 81.3 µM (inactive) | 56.8 µM (inactive) | > 100 µM (inactive) | 10.9 µM (inactive) | 68.7 µM (inactive) | 28.2 µM (inactive) | 32.7 µM (inactive) | 15.8 µM (inactive) | 23.5 µM (inactive) | 0.869 µM (active) | 1.14 µM (inactive) | 32.6 µM (inactive) | 71.4 µM (inactive) | 24.2 µM (inactive) | > 100 µM (inactive) | 18.3 µM (inactive) | 7.06 µM (inactive) | 25.2 µM (inactive) | 0.714 µM (active) |
| BrC1(c2ccccc2)C[n+]2c(-c3ccccc3)cc(-c3ccccc3)cc2-c2ccccc21 (stereo unspecified) | 0.441 µM (active) | 0.407 µM (active) | 1.27 µM (inactive) | 0.384 µM (active) | 1.81 µM (inactive) | 0.183 µM (active) | 0.289 µM (active) | 0.34 µM (active) | 0.127 µM (active) | – | 0.197 µM (active) | 0.409 µM (active) | 0.231 µM (active) | 0.327 µM (active) | 0.92 µM (active) | 0.52 µM (active) | 1.03 µM (active) | 0.426 µM (active) | 0.363 µM (active) |
| Brc1ccc(-c2cn3ccncc3n2)cc1 | > 100 µM (inactive) | > 100 µM (inactive) | > 100 µM (inactive) | > 100 µM (inactive) | > 100 µM (inactive) | > 100 µM (inactive) | > 100 µM (inactive) | > 100 µM (inactive) | > 100 µM (inactive) | > 100 µM (inactive) | > 100 µM (inactive) | > 100 µM (inactive) | > 100 µM (inactive) | > 100 µM (inactive) | > 100 µM (inactive) | > 100 µM (inactive) | > 100 µM (inactive) | – | > 100 µM (inactive) |
| CC(C)(C)OC(=O)NC(CSCc1ccc(C(=O)c2ccccc2)cc1)C(=O)O (stereo unspecified) | > 100 µM (inactive) | > 100 µM (inactive) | > 100 µM (inactive) | > 100 µM (inactive) | > 100 µM (inactive) | > 100 µM (inactive) | > 100 µM (inactive) | > 100 µM (inactive) | 61.5 µM (inactive) | – | > 100 µM (inactive) | > 100 µM (inactive) | 34.9 µM (inactive) | > 100 µM (inactive) | > 100 µM (inactive) | > 100 µM (inactive) | > 100 µM (inactive) | > 100 µM (inactive) | > 100 µM (inactive) |
